Reference: patent US20160324875A1, “CUTANEOUS COMPOSITION COMPRISING VITAMIN D ANALOGUE AND A MIXTURE OF SOLVENT AND SURFACTANTS” (LEO PHARMA A/S, priority 2009, published 2016)
Entries after “also recorded” stand apart in the source; their conditions may differ.

Experiments:
[1] = skin diffusion experiment (Franz diffusion cells); type: in vitro ADME, pig; conditions: from a composition of the invention, 4 mg/cm^2, 21 hours, FIG. 3, % of applied dose
Description: To investigate the skin penetration and permeation of calcipotriol from compositions of the invention, a skin diffusion experiment was conducted. Full thickness skin from pig ears was used in the study. The ears were kept frozen at -18° C. before use. On the day prior to the experiment the ears were placed in a refrigerator (5±3° C.) for slow defrosting. On the day of the experiment, the hairs were removed using a veterinary hair trimmer. The skin was cleaned for subcutaneous fat using a scalpel and two pieces of skin were cut from each ear and mounted on Franz diffusion cells in a balanced order.
Static Franz-type diffusion cells with an available diffusion area of 3.14 cm^2 and receptor volumes ranging from 8.6 to 11.1 ml were used in substantially the manner described by T. J. Franz, “The finite dose technique as a valid in vitro model for the study of percutaneous absorption in man”, in Current Problems in Dermatology, 1978, J. W. H. Mall (Ed.), Karger, Basel, pp. 58-68. The specific volume was measured and registered for each cell. A magnetic bar was placed in the receptor compartment of each cell. […]
The in vitro skin permeation of each test composition was tested in 6 replicates (i.e. n=6). […] A glass spatula was used for the application, and the residual amount of the composition was determined so as to give the amount of the composition actually applied on the skin. […]

[2] = tested on: gene encoding cathelicidin; assay: induction of the gene encoding cathelicidin in reconstructed human epidermis (qPCR); type: cell-based; conditions: glycerol 5% vs 10% or 15% by weight in calcipotriol composition
Text: In psoriasis, the level of cathelicidin is increased in lesional skin of psoriasis patients. […] This finding has been utilized to develop an assay in which the uptake and biological activity of calcipotriol in human keratinocytes from the tested compositions has been determined by measuring the level of induction of the gene encoding cathelicidin.
In the assay, composition 1A prepared as described in Example 1 above was applied topically in triplicate on reconstructed human epidermis consisting of normal human keratinocytes cultured for 12 days on 0.5 cm^2 polycarbonate filters (available from SkinEthic® Laboratories, Nice, France) in an amount of […]. The tissue was treated for two days followed by separation of the epidermis from the polycarbonate filter and snap-frozen in liquid nitrogen. RNA was extracted from the cells and cDNA synthesized by conventional procedures. Quantitative real-time PCR (qPCR) was then performed using the following assays from Applied Biosystems: CAMP Hs0018038_ml and GAPDH Hs99999905_ml. The expression levels of cathelicidin were normalized to GAPDH and a relative quantification was made by comparison with Daivonex® ointment.

IL-la = assay: release of IL-1a from calcipotriol ointment containing glycerol; conditions: 5%, 10%, 15% by weight of glycerol in a calcipotriol ointment
[3] = one study, Hannuksela et al. 1975; cited from earlier work

**Q.** For `C=C1/C(=C\C=C2/CCC[C@]3(C)[C@@H]([C@H](C)/C=C/[C@@H](O)C4CC4)CC[C@@H]23)C[C@@H](O)C[C@@H]1O` [calcipotriol, Calcipotriol], which “calcipotriol penetrated into viable layers of the skin (dermis and epidermis)” value [1] is on record?
**A.** a significant amount

**Q.** And the “calcipotriol permeated through the skin into the receptor fluid” value [1]?
**A.** Very little; also recorded: only a minor amount

**Q.** What does the source list for `OCC(O)CO` [glycerol]?
**A.** expression of cathelicidin [2]: increased with a low amount of glycerol; release of IL-la (IL-la): reduce the release of IL-la in a dose-dependent manner

**Q.** With `CC(O)CO` (centres unmarked) [propylene glycol] as the compound, how does the “number of irritant reactions” value [3] read?
**A.** 12.5%
